# Values quoted from earlier work as cited in patent US20150133410A1, “TOPICAL OPHTHALMIC, OTIC, AND NASAL COMPOSITIONS OF CIPROFLOXACIN” (priority 2013, published 2015).
# Like-named read-outs stand apart in the source and are kept apart here.
# Details: aqueous solutions of about 0.2 to about 1 weight percent
smiles,measurement,setting,value
O=C(O)c1cn(C2CC2)c2cc(N3CCNCC3)c(F)cc2c1=O [ciprofloxacin],pH above which crystalline precipitation of ciprofloxacin occurs,5° C.,above 5
same,pH above which crystalline precipitation of ciprofloxacin occurs,room temperature,above 5.5
